Source: US8975259B2, “Compositions and methods for inhibiting G protein signaling” (University of Rochester, priority 2007, dated 2015)
Entries after “also recorded” stand apart in the source; their conditions may differ. Like-named read-outs stand apart in the source and are kept apart here. No end group written: not given here.

What was measured:
[1] = tested on: PLCβ2; test: Gβ1γ2-dependent activation of purified PLCβ2; type: biochemical
Procedure: (§1) Purified PLCβ2 (0.25 ng) was assayed in the presence (▴) or absence (▪) of 100 nM purified Gβ1γ2. […] Assays contained 10 ng of purified p101/p110 PI3Kγ heterodimer with or without 100 nM purified Gβ1γ2. Left panel: (▴) 100 nM Gβ1γ2 or (▪) no βγ. […] M119 or M201 and 25 nM purified GRK2 were added simultaneously to 250 nM biotinylated Gβ1γ2 (bGβ1γ2) immobilized on streptavidin agarose. GRK2 was detected with antibody to GRK2. Data are representative (mean ±SEM, except D) repeated at least three times each. […] 30 nM bGβ1γ2 was incubated with either 30 nM PLCβ2 or PLCβ3 in the presence or absence of M119 or M201 for 16 h at 4° C. before precipitation with avidin agarose and detection with PLCβ2,or Gβ antibodies. […] Same as 4E with PLCβ3.
(§2) The ability of NSC119910 analogs to selectively modulate activation PLC-β2 and -β3 was analyzed. In this assay, PLC-β2 and PLC-β3 were purified and PLC enzymatic activity was measured in the presence or absence of purified βy and in the presence or absence of analog.
(§3) Nevertheless, M119 and M201 were tested in in vitro reconstitution assays of Gβγ-dependent activation of PLCβ2, PLCβ3 and PI3Kγ and binding to GRK2. […] These are only two of multiple diverse compounds identified, indicating potential for multiple modes of Gβγ-dependent target modulation by these small molecules.

[2] = target: T1, Gαi1-Gβ1γ2 interaction (UniProt P54311+P63212); test: Flow cytometry competition for FITC-Gαi1 binding to immobilized b-Gβ1γ2; conditions: peptides; read-out: IC50 for competition with Gαi binding to Gβ1γ2
T1 construct: made in house; host or cells: b-βγ: Sf9 insect cells
Procedure: (2003) supra; Sarvazyan, et al. (1998) J. Biol. […] Fluorescein-labeled Ga^ (Fan) was prepared in accordance with standard methods (Sarvazyan, et al. (1998) supra). Assays were used to determine peptide effects on Gα-Gβγ interactions included competition and dissociation assays (Ghosh, et al. (2003) supra). […] The bead-associated fluorescence was then recorded in a BD Biosciences […] flow cytometer. Data was corrected for background fluorescence and fit with a sigmoid dose response curve using Graph Pad Prism 4. To measure dissociation of Fan from b-Gβaγ2, 100 pM of Fa^ was incubated with 50 pM immobilized b-Gβ1γ2 at room temperature for 15-20 minutes.

[3] = target: T2, Fαi1GDPβ1γ2 heterotrimer (UniProt P54311+P63212); test: Dissociation of Fαi1 from preformed Fαi1β1γ2 heterotrimer (flow cytometry); type: binding; conditions: result in words
T2 construct: made in house; host or cells: b-βγ: Sf9 insect cells

[4] = tested on: ERK1 and ERK2 activation in differentiated HL60 cells; test: fMLP-induced ERK1 and ERK2 activation in differentiated HL60 cells; type: cell-based, human; conditions: 10 μM compound, 1 μM fMLP; result in words
Procedure: (§4) Cells were pretreated with DMSO or 10 μM compounds for 5 min prior to stimulation with 250 nM fMLP. […] Normalized peak Ca^2+ responses were pooled from three independent experiments each (mean±SEM). Cells were pretreated with DMSO (▪) or compounds (▴) for 5 min prior to stimulation. FIG. 5C is the same as A except 10 μM M201 was tested. […] Differentiated HL60 cells were treated with 10 μM compound prior to stimulation with 250 nM fMLP. Translocation of endogenous GRK2 was determined by Western blotting with a GRK2 antibody and quantitative chemiluminescence. Data are mean±SEM from 5 experiments, * P<0.05, **P<0.01 ANOVA. […] Differentiated HL60 cells stably over-expressing GFP-PHAkt were treated with 10 μM compound prior to stimulation with 100 nM fMLP. Translocation of GFP-PHAkt to the membrane was determined by Western blotting with an anti-GFP antibody and quantitative chemiluminescence. Data are mean±SEM from 4 experiments. *** P<0.001 ANOVA. […] Differentiated HL60 cells were pretreated with 10 μM of compound prior to stimulation with 1 μM fMLP for 5 min. Levels of phosphorylated and total ERK were determined by Western blotting.

[5] = tested on: fMLP-dependent Ca2+ release in differentiated HL60 cells; test: fMLP-dependent Ca2+ release in fura-2 loaded DMSO-differentiated HL60 cells; type: cell-based, human; conditions: 10 μM compound, 250 nM fMLP; result in words
Procedure: as §4
Ca^2+ fluxes were measured using two 35 mL cultures of differentiated HL-60 neutrophil cultures (0.2×10^6 cells/mL). Cells were cultured for three days with in DMSO
(1.2%), washed in HSS and resuspended in 2 mL HBSS at a concentration of 7×10^s cells/mL. Addition of DMSO to the growth medium induces differentiation of these cells into morphologically and functionally mature neutrophils
(Collins, et al. (1978) Proc. Natl. Acad. Sci. USA 75:2458; Collins, et al. (1979) J. Exp. Med. 149:969). Neutrophils were preloaded with fura-2 (1 μM), a fluorescent Ca^2+-sensitive indicator (Suh, et al. (1996) J. Biol. Chem. 271:32753), for 45 minutes, washed with HBSS and resuspended in 2 mL of indicator-free HBSS. An 140 μL aliquote of cells was added to a total of 2 mL HBSS. Fluorescence ratios were taken by dual excitation at 340 and 380 nm and emission at 510 nm. After a stable baseline was established, either DMSO or NSC119910 was added and incubated for 5 minutes. […]

[6] = tested on: carrageenan-induced paw edema in mice; test: Carrageenan-induced paw edema and neutrophil abundance
[7] = tested on: human μ opioid receptor (hMOR-CHO cells); test: Total inositol phosphate assay in hMOR-CHO cells; type: cell-based
Procedure: Chinese hamster ovary (CHO) cells stably expressing either the human κ (hKOR-CHO), δ (hDOR-CHO)(L. Toll, Stanford Research Institute, Palo Alto, Calif.) or μ (hMOR-CHO)(G. Uhl, National Institute on Drug Abuse, Baltimore, Md.) opioid receptor were used in the experiments. Cells in 6-well plates were labeled by adding 4 μCi of [^3H]inositol for 24 hr in inositol-free F-10 media, without serum. After labeling, LiCl was added directly to the labeling media at a final concentration of 10 mM. Ligands or peptides were added at the same time. The final volume of each well was 1 mL. The plates were put back in to the incubator at 37° C. for 30 min after which time the medium was aspirated and the plates were washed twice with 1× PBS. Ice-cold 50 mM formic acid, 1 mL, was added to the plates which were placed in the cold room at 4° C. for 30 min. After the incubation, the contents of the plates were applied to Dowex AG1-X8 columns and allowed to flow all the way through the column. The columns were washed, twice each, with 50 and 100 mM formic acid, for a total of four washes, followed by elution of the IP-containing fraction with 3 mL of 1.2 M ammonium formate/0.1 M formic acid. The eluted fraction was mixed with Scintisafe scintillation fluid, for high salt, and counted. The data are represented as the fold increase over control in total inositol phospates. All experiments were repeated three times and performed in duplicate. Control cells for each experiment were labeled with [^3H]inositol and LiCl, in the same manner as the treatment groups.

[8] = tested on: opioid-induced antinociception in mice; test: 55° C. warm-water tail-flick antinociception; type: in vivo, mouse; conditions: i.c.v., 20 min, 55° C. tail-flick; 95% CL in parentheses
[9] = target: Gβ1γ2 (UniProt P54311+P63212); test: Competition phage ELISA: inhibition of SIGK-phage binding to immobilized biotinylated Gβ1γ2; parameters: made in house; host or cells: Sf9 insect cells (baculovirus; co-expressed with BirA and (His)6-Gαi1, from which βγ was eluted); species or system rat
Procedure: Phage ELISA assays used to assess peptide binding to wild-type and mutant b-βγ were performed according to standard methods (Smrcka and Scott (2002) Methods Enzymol. 344:557-76). Briefly, 1 μg streptavidin was immobilized in the well of a […] overnight at 4° C. The wells were blocked with 100 μL of 2% bovine serum albumin (BSA) in Tris-buffered saline (TBS) for 1 hour at 4° C. followed by three washes of IX TBS/0.5% TWEEN®. […] The wells were washed, followed by the addition of IxIO^6 to IxIO^10 phage particles and incubated at 4° C. for 3 hours. The wells were then washed six times with TBS/0.5% TWEEN® followed by addition of 40 μL of 1:5000 dilution of anti-M13 antibody (Pharmacia, Uppsala, Sweden) and incubated at room temperature for 1 hour. The wells were washed, followed by the addition of 40 μL of (2,2′-Azino-bis (3-ethylbenzthiazoline)-6-sulfonic acid (ABTS) and the colorimetric reaction was monitored at 405 nm. Nonspecific binding was subtracted for each reading.
A phage ELISA assay was used to determine whether small molecules identified in the computational screen could interact with the Gβy protein interaction surface. […] The screen was based on a reduction in the optical density (OD) of wells containing Gβγ subunits and phage. […] Three background wells contained no βy subunits.
As disclosed herein, biotinylated Gβy subunits were immobilized on the surface of a 96-well plate coated with streptavidin, phage displaying Gβγ-binding peptides were subsequently added and binding in the presence and absence of test compounds detected with an anti-phage antibody.
The phage ELISA assay was used to rapidly screen the ability of compounds to bind to the protein interaction “hot spot” based on the method of Scott et. al (Scott et al., 2001). This assay is performed in the presence of detergent (0.5% Tween) to eliminate non-specific compound aggregation artifacts.
Compounds/DMSO and 0.1×10^10 phage were added simultaneously and subsequently incubated for 1 h at room temperature. Plates were then washed with 1× Tris-buffered saline/0.5% Tween 20 and incubated with anti-M13, HRP-conjugated antibody (Amersham, Chalfont St. Giles, Buckinghamshire, UK). Phage binding was determined by monitoring A405 upon addition of 2,2′-azino-bis(3-ethylbenzothiazoline-6-sulfonic acid) (Sigma Aldrich).

[10] = tested on: PLCβ3; test: Gβ1γ2-dependent activation of purified PLCβ3; type: biochemical; parameters: key to PLCb3: NE = No effect; conditions: Table 19, effector IC50
Procedure: as §1, §2, §3

[11] = tested on: PI3Kγ; test: Gβ1γ2-dependent activation of purified p101/p110 PI3Kγ; type: biochemical; conditions: Table 19, effector IC50; read-out: PI 3-Kg
Procedure: as §1, §3

## Nc1ccc(-c2ccc(Nc3cc(S(=O)(=O)O)c(N)c4c3C(=O)c3ccccc3C4=O)cc2)c(S(=O)(=O)O)c1 [drawing 57]
[1]; Table 3, read-out: PLCβ2 IC50
  IC50: > 30 µM

## Nc1cccc(Nc2cc(S(=O)(=O)O)c(N)c3c2C(=O)c2ccccc2C3=O)c1 [drawing 56]
[1]; Table 3, read-out: PLCβ2 IC50
  IC50: 14 µM

## SIRKALNILAYPDYD [SIRK(GIyIOAIa)]
[2]
  IC50: ~80 µM
[3]
  promotion/acceleration of heterotrimer dissociation: could still accelerate heterotrimer dissociation

## O=C(O)c1cccc2cccc(-c3c4ccc(=O)c(O)c-4oc4c(O)c(O)ccc34)c12 [Compound M119K]
[4]
  effect on fMLP-induced activation of ERK1 and ERK2: without interfering
[5]
  effect on fMLP-induced Ca^2+ increase: block

## COc1ccc2c(c1)c(CC(=O)O)c(C)n2C(=O)c1ccc(Cl)cc1 [indomethacin]
[6]; i.p. 1 h before carrageenan, gallein 100 mg/kg, indomethacin 2.5 mg/kg, result in words
  effect on carrageenan-induced paw edema: sharply reduced
[6]; i.p. pretreatment, 2 h after carrageenan
  reduction of exudate volume: approximately 75%

## CC[C@H](C)[C@H](NC(=O)[C@H](CC(N)=O)NC(=O)[C@H](CC(C)C)NC(=O)[C@H](C)NC(=O)[C@H](C)NC(=O)[C@H](CCCNC(=N)N)NC(=O)[C@@H](NC(=O)[C@@H](N)CO)[C@@H](C)CC)C(=O)N[C@@H](CC(C)C)C(=O)NCC(=O)N[C@@H](Cc1ccc(O)cc1)C(=O)N1CCC[C@H]1C(=O)N[C@@H](CC(=O)O)C(=O)N[C@@H](Cc1ccc(O)cc1)C(=O)N[C@@H](CC(=O)O)C(=O)O [SIRK(Lys4Ala)]
[3]
  promotion/acceleration of heterotrimer dissociation: failed to accelerate heterotrimer dissociation

## C[C@@H](NC(=O)[C@@H](N)Cc1ccc(O)cc1)C(=O)NCC(=O)N(C)[C@@H](Cc1ccccc1)C(=O)NCCO [DAMGO, [D-Ala^2, N-Me-Phe^4, Gly^5-ol]-enkephalin]
[7]
  increase in total IP compared to control: 4 fold
[8]
  ED50 of opioid agonist alone: 0.07 nmol

## C[C@H](NC(=O)[C@H](CS)NC(=O)[C@@H](N)CO)C(=O)N[C@@H](CCCNC(=N)N)C(=O)N[C@@H](Cc1ccccc1)C(=O)N[C@@H](Cc1ccccc1)C(=O)NCC(=O)N[C@H](C(=O)N1CCC[C@H]1C(=O)NCC(=O)N[C@@H](CS)C(=O)N[C@H](C(=O)O)[C@@H](C)O)[C@@H](C)O [SCAR]
[3]
  promotion/acceleration of heterotrimer dissociation: could not promote dissociation of a preformed heterotrimer; also recorded: the same as the intrinsic rate

## Nc1ccc(Nc2cc(S(=O)(=O)O)c(N)c3c2C(=O)c2ccccc2C3=O)cc1 [drawing 55]
[1]; Table 3, read-out: PLCβ2 IC50
  IC50: 75 µM

## COC(=O)/C=C/C(=O)N[C@@H]1CC[C@@]2(O)[C@H]3Cc4ccc(O)c5c4[C@@]2(CCN3CC2CC2)[C@H]1O5 [β-FNA, β-funaltrexamine]
[7]
  effect on DAMGO- and morphine-dependent IP production: attenuated

## O=C1c2ccccc2C(=O)c2c(Nc3cc4c5c(ccc6c7ccc8c9c(cc(Nc%10cccc%11c%10C(=O)c%10ccccc%10C%11=O)c(c3c56)c97)-c3ccccc3C8=O)C(=O)c3ccccc3-4)cccc21 [Compound M231]
[1]; Table 19, effector IC50, read-out: PLCb2
  IC50: 167 µM
[9]; Table 8, read-out: IC50
  IC50: 16 µM
[9]; Table 18, compounds identified in Elisa screen, read-out: IC50
  IC50: 16 µM
[9]; Table 19, read-out: ELISA
  IC50: 27 µM
[10]
  PLCb3: NE
[11]
  IC50: 13.5 µM
